Source: patent publication US20230183239A1, “ECTONUCLEOTIDE PYROPHOSPHATASE-PHOSPHODIESTERASE 1 (ENPP-1) INHIBITORS AND USES THEREOF” (AbbVie Inc., priority 2017, published 2023)

What follows are compounds tested against T1, ENPP1 (Homo sapiens, UniProt P22413) (assay: Indirect quantitation of 2',3'-cGAMP hydrolysis (AMP-Glo Assay kit)). Details: cGAMP substrate; Ki from IC50 by Cheng-Prusoff; read-out: ENPP1 Inhibition -cGAMP: Ki.
T1 sequence (P22413 1-925): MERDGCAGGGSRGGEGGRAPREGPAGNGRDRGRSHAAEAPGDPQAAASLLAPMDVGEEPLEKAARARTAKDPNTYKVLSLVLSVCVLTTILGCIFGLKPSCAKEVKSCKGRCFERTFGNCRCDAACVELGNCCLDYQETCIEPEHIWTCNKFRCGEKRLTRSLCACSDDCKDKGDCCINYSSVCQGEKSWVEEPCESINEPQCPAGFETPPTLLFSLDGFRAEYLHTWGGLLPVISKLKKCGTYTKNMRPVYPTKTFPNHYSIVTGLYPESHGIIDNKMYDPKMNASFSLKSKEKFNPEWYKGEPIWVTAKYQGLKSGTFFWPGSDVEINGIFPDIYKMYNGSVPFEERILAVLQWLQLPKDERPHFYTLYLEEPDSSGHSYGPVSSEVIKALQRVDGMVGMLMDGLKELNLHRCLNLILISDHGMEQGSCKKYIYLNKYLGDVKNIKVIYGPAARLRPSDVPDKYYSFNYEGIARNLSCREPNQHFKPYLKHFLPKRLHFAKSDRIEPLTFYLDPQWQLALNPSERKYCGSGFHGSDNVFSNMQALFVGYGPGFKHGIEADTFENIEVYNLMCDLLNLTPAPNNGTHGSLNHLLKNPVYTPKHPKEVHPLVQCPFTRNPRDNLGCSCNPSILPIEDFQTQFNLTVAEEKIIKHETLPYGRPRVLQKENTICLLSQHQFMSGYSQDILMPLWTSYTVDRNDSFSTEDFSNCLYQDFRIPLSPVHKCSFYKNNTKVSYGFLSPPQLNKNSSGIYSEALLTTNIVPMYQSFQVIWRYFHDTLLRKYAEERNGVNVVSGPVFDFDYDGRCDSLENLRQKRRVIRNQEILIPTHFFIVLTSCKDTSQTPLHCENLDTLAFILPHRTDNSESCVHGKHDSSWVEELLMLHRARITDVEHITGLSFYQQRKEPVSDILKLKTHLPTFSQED
Assay type: biochemical

SMILES | Ki
COc1ccc2c(Oc3ccc(NS(N)(=O)=O)cc3)ccnc2c1F [Example 268, N-(4-((8-fluoro-7-methoxyquinolin-4-yl)oxy)phenyl)sulfamide] | > 1000 nM
COc1cnc(C(=O)N2CCC(CCNS(N)(=O)=O)CC2)cc1OC [Example 124, N-(2-(1-(4,5-dimethoxypicolinoyl)piperidin-4-yl)ethyl)sulfamide] | > 1000 nM
COc1cc2ncnc(N3CCC(CCNS(=O)(=O)N(C)C)CC3)c2cc1OC [Example 143, 2-(1-(6,7-dimethoxyquinazolin-4-yl)piperidin-4-yl)ethan-1-amino(N,N-dimethyl)sulfonamide] | > 1000 nM
COc1cc2ncnc(-c3ccc(NS(N)(=O)=O)cc3)c2cc1OC [Example 113, N-(4-(6,7-dimethoxyquinazolin-4-yl)phenyl)sulfamide] | 100 to 1000 nM
COc1ccc2c(=O)n(Cc3ccc(S(N)(=O)=O)cc3)cnc2c1 [Example 400, 4-((7-methoxy-4-oxoquinazolin-3(4H)-yl)methyl)benzenesulfonamide] | > 1000 nM
COc1ccc2c(Oc3ccc(NS(N)(=O)=O)c(OC)c3)ccnc2n1 [Example 421, N-(2-methoxy-4-((7-methoxy-1,8-naphthyridin-4-yl)oxy)phenyl)sulfamide] | < 100 nM
COc1cc2ccn(-c3ccc(CNS(N)(=O)=O)cc3)c2cc1OC [Example 186, N-(4-(5,6-dimethoxy-1H-indol-1-yl)benzyl)sulfamide] | > 1000 nM
COc1ccc(S(=O)(=O)N2CCN(CCNS(N)(=O)=O)CC2)cc1OC [Example 152, N-(2-(4-((3,4-dimethoxyphenyl)sulfonyl)piperazin-1-yl)ethyl)sulfamide] | > 1000 nM
CCOc1ccc(S(=O)(=O)N2CCN(C)CC2)cc1-c1ncnc2cc(OC)c(OC)cc12 [Example 337, 4-(2-ethoxy-5-((4-methylpiperazin-1-yl)sulfonyl)phenyl)-6,7-dimethoxyquinazoline] | > 1000 nM
COc1ccc2c(Oc3ccc(NS(N)(=O)=O)cc3C)ccnc2c1 [Example 326, N-(4-((7-methoxyquinolin-4-yl)oxy)-3-methylphenyl)sulfamide] | < 100 nM
COc1ccc2c(-n3cc(CNS(N)(=O)=O)cn3)ccnc2c1 [Example 414, N-((1-(7-methoxyquinolin-4-yl)-1H-pyrazol-4-yl)methyl)sulfamide] | 100 to 1000 nM
COc1cc2ncnc(N3CCC(CCN(C)C)CC3)c2cc1OC [Example 115, 2-(1-(6,7-dimethoxyquinazolin-4-yl)piperidin-4-yl)-N,N-dimethylethan-1-amine] | 100 to 1000 nM
COc1cc2nccc(Oc3ccc(N)cc3)c2cc1OC [Example 341, 4-((6,7-dimethoxyquinolin-4-yl)oxy)aniline] | > 1000 nM
COc1ccc(S(=O)(=O)N2CCN(CCO)CC2)cc1OC [Example 340, 2-(4-((3,4-dimethoxyphenyl)sulfonyl)piperazin-1-yl)ethan-1-ol] | > 1000 nM
COc1cc2nccc(C(=O)N3CCC(CNS(N)(=O)=O)CC3)c2cc1OC [Example 178, N-((1-(6,7-dimethoxyquinoline-4-carbonyl)piperidin-4-yl)methyl)sulfamide] | > 1000 nM
COc1cc2cnn(-c3ccc(CCNS(N)(=O)=O)cc3)c2cc1OC [Example 210, N-(4-(5,6-dimethoxy-1H-indazol-1-yl)phenethyl)sulfamide] | > 1000 nM
NS(=O)(=O)NCCC1CCN(c2ncnc3c2CCN(Cc2ccccc2)C3)CC1 [Example 233, N-(2-(1-(7-benzyl-5,6,7,8-tetrahydropyrido[3,4-d]pyrimidin-4-yl)piperidin-4-yl)ethyl)sulfamide] | > 1000 nM
COc1cc2c(=O)ccn(Cc3ccc(NS(N)(=O)=O)cc3)c2cc1OC [Example 151, N-(4-((6,7-dimethoxy-4-oxoquinolin-1 (4H)-yl)methyl)phenyl) sulfamide] | < 100 nM
NS(=O)(=O)NCCC1CCN(c2ncnc3c[nH]nc23)CC1 [Example 27, N-(2-(1-(1H-pyrazolo[4,3-d]pyrimidin-7-yl)piperidin-4-yl)ethyl)sulfamide] | > 1000 nM
COc1cc2ncnc(NCc3ccc(S(=O)(=O)O)cc3)c2cc1OC [Example 161, 4-(((6,7-dimethoxyquinazolin-4-yl)amino)methyl)benzene sulfonic acid] | > 1000 nM
COc1cc2ncnc(N3CCC(CCNS(C)(=O)=O)CC3)c2cc1OC [Example 338, N-(2-(1-(6,7-dimethoxyquinazolin-4-yl)piperidin-4-yl)ethyl)methanesulfonamide] | 100 to 1000 nM

SMILES | Ki
COc1ccc2c(c1)OCCC2Oc1ccc(NS(N)(=O)=O)cc1 (stereo not drawn) [Example 399, (4-((7-methoxychroman-4-yl)oxy)phenyl)sulfamide] | > 1000 nM
COc1cc2ncnc(-c3ccc(S(N)(=O)=O)cc3)c2cc1OC [Example 333, 4-(6,7-dimethoxyquinazolin-4-yl)benzenesulfonamide] | > 1000 nM
NS(=O)(=O)Nc1ccc(Oc2ccnc3cc(F)ccc23)cc1 [Example 298, N-(4-((7-fluoroquinolin-4-yl)oxy)phenyl)sulfamide] | > 1000 nM
COc1cc2c(Oc3ccc(NS(N)(=O)=O)cc3)ccnc2cn1 [Example 411, N-(4-((6-methoxy-1,7-naphthyridin-4-yl)oxy)phenyl)sulfamide] | > 1000 nM
COc1ccc2c(-c3ccc(CN(C4CC4)S(N)(=O)=O)cc3)ncnc2c1 [Example 324, N-cyclopropyl-N-(4-(7-methoxyquinazolin-4-yl)benzyl)sulfamide] | 100 to 1000 nM
COc1cc2ncnc(N3CCC(CCNS(=O)(=O)NC(C)C)CC3)c2cc1OC [Example 142, 2-(1-(6,7-dimethoxyquinazolin-4-yl)piperidin-4-yl)ethan-1-amino(N-prop-2-yl)sulfonamide] | > 1000 nM
COc1ccc2c(-c3ccc(CNS(N)(=O)=O)cc3C)ccnc2c1 [Example 328, N-(4-(7-methoxyquinolin-4-yl)-3-methylbenzyl)sulfamide] | 100 to 1000 nM
COc1cnc2c(Oc3ccc(NS(N)(=O)=O)cc3)ccnc2c1 [Example 349, N-(4-((7-methoxy-1,5-naphthyridin-4-yl)oxy)phenyl) sulfamide] | > 1000 nM
CNC(=O)c1cc(N2CCC(CCNS(N)(=O)=O)CC2)ncn1 [Example 130, N-methyl-6-(4-(2-(sulfamoylamino)ethyl)piperidin-1-yl)pyrimidine-4-carboxamide] | > 1000 nM
COc1cc2nccc(NC(C)c3ccc(NS(N)(=O)=O)cc3)c2cc1OC (stereo not drawn) [Example 181, N-(4-(1-((6,7-dimethoxyquinolin-4-yl)amino)ethyl)phenyl)sulfamide] | > 1000 nM
COc1cc2ncnc(N3CCC(CCNS(=O)(=O)Nc4ccccc4)CC3)c2cc1OC [Example 183] | > 1000 nM
COc1ccc2c(Oc3ccc(C(=O)O)c(OC)c3)ccnc2c1 [Example 347, 2-methoxy-4-((7-methoxyquinolin-4-yl)oxy)benzoic acid] | 100 to 1000 nM
COc1cc2nccc(N3CCC(CCNS(=O)(=O)NCC(F)(F)F)CC3)c2cc1OC [Example 177, 2-(1-(6,7-dimethoxyquinolin-4-yl)piperidin-4-yl)ethan-1-amino(N-trifluoroethyl) sulfonamide] | > 1000 nM
CCNS(=O)(=O)NCCC1CCN(c2ncnc3cc(OC)c(OC)cc23)CC1 [Example 139, 2-(1-(6,7-dimethoxyquinazolin-4-yl)piperidin-4-yl)ethan-1-amino(N-ethyl)sulfonamide] | > 1000 nM
COc1cc2ncc(-c3ccc(CNS(N)(=O)=O)cc3)nc2cc1OC [Example 278, N-(4-(6,7-dimethoxyquinoxalin-2-yl)benzyl)sulfamide] | > 1000 nM
CNC(=O)c1cc(Oc2ccc(NS(N)(=O)=O)cc2)ccn1 [Example 127, N-methyl-4-(4-(sulfamoylamino)phenoxy)picolinamide] | > 1000 nM
COc1cc2ncc(C#N)c(Oc3ccc(S(N)(=O)=O)cc3)c2cc1F [Example 76, 4-((3-cyano-6-fluoro-7-methoxyquinolin-4-yl)oxy)benzenesulfonamide] | < 100 nM
COc1cc2c(cc1OC)N(Cc1ccc(NS(N)(=O)=O)cc1)C(=O)CC2 [Example 173, N-(4-((6,7-dimethoxy-2-oxo-3,4-dihydroquinolin-1 (2H)-yl)methyl)phenyl) sulfamide] | > 1000 nM
COc1ccc2c(-c3ccc(CNS(N)(=O)=O)cc3OC)ccnc2c1 [Example 383, N-(3-methoxy-4-(7-methoxyquinolin-4-yl)benzyl)sulfamide] | > 1000 nM
COc1ccc2c(N3CCc4ccc(NS(N)(=O)=O)cc43)ccnc2c1 [Example 391, N-(1-(7-methoxyquinolin-4-yl)indolin-6-yl)sulfamide] | > 1000 nM
NC(=O)c1ccc2nccc(N3CCC(CCNS(N)(=O)=O)CC3)c2c1 [Example 192, 4-(4-(2-(sulfamoylamino)ethyl)piperidin-1-yl)quinoline-6-carboxamide] | > 1000 nM
